Experimental data as given in patent US10323018B2 (Millennium Pharmaceuticals, Inc., priority 2015, dated 2019).

Legend:
hNAMPT protein = hNAMPT protein (Homo sapiens (Human), UniProt P43490); assay: NAMPT enzyme assay (TR-FRET/HTRF with BodiPY ligand); type: binding; conditions: for inhibition at 1 µM: NAMPT inhibition at compound concentration 1 μM, read-out: Percent Inhibition; for IC50: NAMPT inhibition, IC50 range class
How it was run: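 His-tagged hNAMPT with anti-6His-Tb, incubated with compound and BodiPY ligand for 1 h at rt in the dark, in Tris-HCl pH 7.5 buffer with DTT, NaCl, MgCl2 and Tween 20. TR-FRET measured with 320 nm excitation as the 520/486 nm emission ratio. IC50 fitted relative to DMSO controls.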

PC3 cells = assay: PC3 growth inhibition (Cell-titer glo, 72 hours); type: cell-based; conditions: Homo sapiens, PC-3, 72 h, read-out: Percent Viability, PC3 cells, compound concentration 1.667 μM, 72 hours
How it was run: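 PC3 cells grown in RPMI1640 plated at 8×10^4 cells/ml, incubated overnight, then exposed to compound diluted in AIM serum-free medium for 72 h at 37 °C, 5% CO2. Luminescence by CellTiter-Glo relative to DMSO controls; % viability at single concentration, GI50 or LD50 from concentration-response curves.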

Chain of hNAMPT protein (P43490 whole entry): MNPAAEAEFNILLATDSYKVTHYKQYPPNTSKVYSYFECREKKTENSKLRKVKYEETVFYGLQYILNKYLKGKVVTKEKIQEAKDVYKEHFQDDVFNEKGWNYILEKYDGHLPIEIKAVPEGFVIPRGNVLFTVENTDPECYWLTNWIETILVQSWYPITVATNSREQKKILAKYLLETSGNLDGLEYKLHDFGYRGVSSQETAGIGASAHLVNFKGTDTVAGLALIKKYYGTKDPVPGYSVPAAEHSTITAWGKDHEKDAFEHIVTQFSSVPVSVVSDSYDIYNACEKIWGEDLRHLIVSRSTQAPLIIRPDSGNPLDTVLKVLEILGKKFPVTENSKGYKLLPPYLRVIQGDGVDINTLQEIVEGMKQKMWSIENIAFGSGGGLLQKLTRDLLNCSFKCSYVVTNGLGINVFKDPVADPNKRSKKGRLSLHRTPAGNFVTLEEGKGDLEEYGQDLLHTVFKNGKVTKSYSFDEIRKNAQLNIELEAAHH

| SMILES | inhibition at 1 µM (hNAMPT protein) | IC50 (hNAMPT protein) | viability at 1.667 µM (PC3 cells) |
| --- | --- | --- | --- |
| CCOc1c(F)c(-c2ccc(F)cc2)nc2cc(C(=O)NCCCc3cnn[nH]3)ccc12 [Compound I-73, 4-ethoxy-3-fluoro-2-(4-fluorophenyl)-N-[3-(1H-1,2,3-triazol-4-yl)propyl]quinoline-7-carboxamide] | 100% | < 10 nM | 1% |
| CCOc1cc(-c2ccnc(C)c2)nc2cc(C(=O)NCc3ccc4ncnn4c3)ccc12 [Compound I-74, 4-ethoxy-2-(2-methylpyridin-4-yl)-N-([1,2,4]triazolo[1,5-a]pyridin-6-ylmethyl)quinoline-7-carboxamide] | 100% | < 10 nM | 1% |
| CCOc1cc(-c2ccnc(C)c2)nc2cc(C(=O)NCCCc3[nH]nnc3C)ccc12 [Compound I-75, 4-ethoxy-2-(2-methylpyridin-4-yl)-N-[3-(4-methyl-1H-1,2,3-triazol-5-yl)propyl]quinoline-7-carboxamide] | 94% | 10 to 50 nM | 1% |
| CCOc1cc(-c2ccc(=O)n(C)c2)nc2cc(C(=O)NCCc3[nH]nnc3C)ccc12 [Compound I-76, 4-ethoxy-2-(1-methyl-6-oxo-1,6-dihydropyridin-3-yl)-N-[2-(4-methyl-1H-1,2,3-triazol-5-yl)ethyl]quinoline-7-carboxamide] | 93% | 50 to 100 nM | 11% |
| CCOc1cc(-c2ccc(C)nc2)nc2cc(C(=O)NCCc3[nH]nnc3C)ccc12 [Compound I-77, 4-ethoxy-2-(6-methylpyridin-3-yl)-N-[2-(4-methyl-1H-1,2,3-triazol-5-yl)ethyl]quinoline-7-carboxamide] | 97% | 10 to 50 nM | 1% |
| CCOc1c(F)c(-c2ccc(F)cc2)nc2cc(C(=O)NCCCc3nnc[nH]3)ccc12 [Compound I-78, 4-ethoxy-3-fluoro-2-(4-fluorophenyl)-N-[3-(4H-1,2,4-triazol-3-yl)propyl]quinoline-7-carboxamide] | 99% | < 10 nM | 2% |
| CCOc1cc(-c2ccc(F)cc2)nc2cc(C(=O)NCc3cc4cnccc4s3)ccc12 [Compound I-79, 4-ethoxy-2-(4-fluorophenyl)-N-(thieno[3,2-c]pyridin-2-ylmethyl)quinoline-7-carboxamide] | 99% | < 10 nM | 2% |
| CCOc1cc(-c2ccc(F)cc2)nc2cc(C(=O)NCc3cc4[nH]ncc4s3)ccc12 [Compound I-80, 4-ethoxy-2-(4-fluorophenyl)-N-(1H-thieno[3,2-c]pyrazol-5-ylmethyl)quinoline-7-carboxamide] | 98% | < 10 nM | 2% |
| COCCOc1cc(-c2ccc(F)cc2)nc2cc(C(=O)NCC(F)(F)Cc3nnc[nH]3)ccc12 [Compound I-81, N-[2,2-difluoro-3-(4H-1,2,4-triazol-3-yl)propyl]-2-(4-fluorophenyl)-4-(2-methoxyethoxy)quinoline-7-carboxamide] | 67% | > 100 nM | 2% |
| COCCOc1cc(-c2ccc(F)cc2)nc2cc(C(=O)NCc3ccn4ncnc4c3)ccc12 [Compound I-82, 2-(4-fluorophenyl)-4-(2-methoxyethoxy)-N-([1,2,4]triazolo[1,5-a]pyridin-7-ylmethyl)quinoline-7-carboxamide] | 100% | < 10 nM | 2% |
| CCOc1cc(-c2ccnc(OC)c2)nc2cc(C(=O)NCCc3[nH]nnc3C)ccc12 [Compound I-83, 4-ethoxy-2-(2-methoxypyridin-4-yl)-N-[2-(4-methyl-1H-1,2,3-triazol-5-yl)ethyl]quinoline-7-carboxamide] | 96% | 10 to 50 nM | 2% |
| CCOc1cc(-c2ccc(F)cc2)nc2cc(C(=O)NCc3ccc4ncnn4c3)ccc12 [Compound I-84, 4-ethoxy-2-(4-fluorophenyl)-N-([1,2,4]triazolo[1,5-a]pyridin-6-ylmethyl)quinoline-7-carboxamide] | 99% | < 10 nM | 1% |
| CCOc1cc(-c2ccc(F)cc2OC)nc2cc(C(=O)NCc3ccn4ncnc4c3)ccc12 [Compound I-85, 4-ethoxy-2-(4-fluoro-2-methoxyphenyl)-N-([1,2,4]triazolo[1,5-a]pyridin-7-ylmethyl)quinoline-7-carboxamide] | 100% | < 10 nM | 2% |
| CCOc1cc(-c2ccnc(C)c2)nc2cc(C(=O)NCc3ccn4ncnc4c3)ccc12 [Compound I-86, 4-ethoxy-2-(2-methylpyridin-4-yl)-N-([1,2,4]triazolo[1,5-a]pyridin-7-ylmethyl)quinoline-7-carboxamide] | 99% | < 10 nM | 2% |
| CCOc1cc(-c2ccc(C)nc2OC)nc2cc(C(=O)NCCc3[nH]nnc3C)ccc12 [Compound I-87, 4-ethoxy-2-(2-methoxy-6-methylpyridin-3-yl)-N-[2-(4-methyl-1H-1,2,3-triazol-5-yl)ethyl]quinoline-7-carboxamide] | 94% | 10 to 50 nM | 2% |
| CCOc1cc(-c2ccc(OC)nc2)nc2cc(C(=O)NCCc3[nH]nnc3C)ccc12 [Compound I-88, 4-ethoxy-2-(6-methoxypyridin-3-yl)-N-[2-(4-methyl-1H-1,2,3-triazol-5-yl)ethyl]quinoline-7-carboxamide] | 97% | 10 to 50 nM | 1% |
| CCOc1cc(-c2cnc(OC)c(F)c2)nc2cc(C(=O)NCCCc3nnc[nH]3)ccc12 [Compound I-89, 4-ethoxy-2-(5-fluoro-6-methoxypyridin-3-yl)-N-[3-(4H-1,2,4-triazol-3-yl)propyl]quinoline-7-carboxamide] | 96% | 10 to 50 nM | 2% |
| CCOc1cc(-c2ccnc(OC)c2F)nc2cc(C(=O)NCCCc3nnc[nH]3)ccc12 [Compound I-90, 4-ethoxy-2-(3-fluoro-2-methoxypyridin-4-yl)-N-[3-(4H-1,2,4-triazol-3-yl)propyl]quinoline-7-carboxamide] | 97% | 10 to 50 nM | 1% |
| CCOc1cc(-c2ccc(F)cc2)nc2cc(C(=O)NCC(F)(F)Cc3nnc[nH]3)ccc12 [Compound I-91, N-[2,2-difluoro-3-(4H-1,2,4-triazol-3-yl)propyl]-4-ethoxy-2-(4-fluorophenyl)quinoline-7-carboxamide] | 80% | > 100 nM | 2% |
| CCOc1cc(-c2ccc(C)nc2OC)nc2cc(C(=O)NCCc3c[nH]nc3C)ccc12 [Compound I-92, 4-ethoxy-2-(2-methoxy-6-methylpyridin-3-yl)-N-[2-(3-methyl-1H-pyrazol-4-yl)ethyl]quinoline-7-carboxamide] | 95% | 10 to 50 nM | 2% |
| CCOc1cc(-c2ccc(OC)nc2)nc2cc(C(=O)NCCCc3[nH]nnc3C)ccc12 [Compound I-93, 4-ethoxy-2-(6-methoxypyridin-3-yl)-N-[3-(4-methyl-1H-1,2,3-triazol-5-yl)propyl]quinoline-7-carboxamide] | 99% | 10 to 50 nM | 2% |
| CCOc1cc(-c2ccc(C)nc2OC)nc2cc(C(=O)NCCCc3[nH]nnc3C)ccc12 [Compound I-94, 4-ethoxy-2-(2-methoxy-6-methylpyridin-3-yl)-N-[3-(4-methyl-1H-1,2,3-triazol-5-yl)propyl]quinoline-7-carboxamide] | 97% | 10 to 50 nM | 1% |
| CCOc1cc(-c2ccn(C)c(=O)c2)nc2cc(C(=O)NCCCc3cnn[nH]3)ccc12 [Compound I-95, 4-ethoxy-2-(1-methyl-2-oxo-1,2-dihydropyridin-4-yl)-N-[3-(1H-1,2,3-triazol-5-yl)propyl]quinoline-7-carboxamide] | > 99% | < 10 nM | 1% |
| CCOc1cc(-c2ccc(=O)n(C)c2)nc2cc(C(=O)NCCCc3cnn[nH]3)ccc12 [Compound I-96, 4-ethoxy-2-(1-methyl-6-oxo-1,6-dihydropyridin-3-yl)-N-[3-(1H-1,2,3-triazol-5-yl)propyl]quinoline-7-carboxamide] | > 99% | < 10 nM | 1% |
| CCOc1cc(-c2ccc(=O)n(C)c2)nc2cc(C(=O)NCCCc3[nH]nnc3C)ccc12 [Compound I-97, 4-ethoxy-2-(1-methyl-6-oxo-1,6-dihydropyridin-3-yl)-N-[3-(4-methyl-1H-1,2,3-triazol-5-yl)propyl]quinoline-7-carboxamide] | > 99% | 10 to 50 nM | 2% |
| CCOc1cc(-c2ccc(=O)n(C)c2)nc2cc(C(=O)NCCc3c[nH]nc3C)ccc12 [Compound I-98, 4-ethoxy-2-(1-methyl-6-oxo-1,6-dihydropyridin-3-yl)-N-[2-(3-methyl-1H-pyrazol-4-yl)ethyl]quinoline-7-carboxamide] | 99% | 50 to 100 nM | 1% |
| CCOc1cc(-c2ccnc(C)c2)nc2cc(C(=O)NCc3nc4cnccc4[nH]3)ccc12 [Compound I-99, 4-ethoxy-N-(1H-imidazo[4,5-c]pyridin-2-ylmethyl)-2-(2-methylpyridin-4-yl)quinoline-7-carboxamide] | > 99% | < 10 nM | 2% |
